For this data set the following is noted: human, in vivo.

As for `CCNCC#CCOC(=O)C(O)(c1ccccc1)C1CCCCC1` (stereo not shown) [desethyloxybutynin], the “t½ of DESOXY compared to OXY” value is “shorter t½ life compared to OXY”.
